Source: US11225507B2, “Conformation switchable antimicrobial peptides and methods of using the same” (priority 2017, dated 2022)

Assay: Toxicity of PL2 in vivo after oral gavage
Set-up: species or system mice
Settings: mouse
Description: Toxicity of PL2 in vivo. […] Mice were sacrificed on day 5, and the blood samples were collected for the analysis of alanine aminotransferase (ALT), aspartate aminotransferase (AST), creatinine, urea nitrogen, sodium ion and potassium ion levels. The colonic segment, stomach, liver, small intestine, kidney and feces of each mouse was gathered and homogenized with cold PBS (pH7.4). The stomachs were used to determine the expression of caspase 3 and caspase 8 using Caspase 3 Assay Kit (Sigma) and Caspase 8/FLICE Colorimetric Kit (Life technology), respectively. The colonic segment and feces were used to extract bacterial DNA. The stomach, small intestine, liver, and kidney were kept in formalin for H&E staining. The stomachs were also kept in formalin for terminal deoxynucleotidyl transferase dUTP nick end labeling (TUNEL) assay (S7100|ApopTag® Peroxidase In Situ Apoptosis Detection Kit). […] The inflammation and injury of stomach were scored by Dr. Liu in a blind manner based on the H&E staining. Inflammation was graded on a 0-3 ordinal scale based on the Sydney System as follows: chronic inflammation (mononuclear cell infiltration independent of lymphoid follicles); grade 0, no inflammation; grade 1, mild inflammation (slight increase in mononuclear cells); grade 2, moderate inflammation (dense but focal mononuclear inflammatory cells); and grade 3, severe inflammation (dense and diffuse mononuclear inflammatory cells). The appearance of the mucosa was graded as follows: 0, normal; 1, spotty changes in cellular staining characteristics of some surface epithelial cells in an otherwise normal mucosa (mild injury); 2, more generalized changes and/or disruption of the surface epithelium in several areas (moderate injury); 3, extensive mucosal destruction (severe injury).

(PGA)18-r-(PHLG-MHH)20 [PL2]
ALT: 37.3 ± 0.5 U/L
AST: 120.3 ± 17.9 U/L
Creatinine: 8.7 ± 0.9 µM
Potassium ion: 8.1 ± 0.2 mM
Sodium ion: 149.4 ± 1.6 mM
Urea nitrogen: 6.8 ± 0.6 mM
histology of intestines, liver, and kidney (H&E staining): barely detectable histological abnormality
